How the values were obtained:
Assay type in all cases: functional
SR [1] = assay: Growth inhibition of Homo sapiens (human) SR cells at 10 uM after 48 hr by SRB assay; details: read-out: GI
K562 = assay: Growth inhibition of Homo sapiens (human) K562 cells at 10 uM after 48 hr by SRB assay; details: K562, 48 h, read-out: GI
CAKI-1 = assay: Growth inhibition of Homo sapiens (human) CAKI-1 cells at 10 uM after 48 hr by SRB assay; details: CAKI-1, 48 h, read-out: GI
SK-MEL-5 = assay: Growth inhibition of Homo sapiens (human) SK-MEL-5 cells at 10 uM after 48 hr by SRB assay; details: SK-MEL-5, 48 h, read-out: GI
HOP-62 [2] = assay: Cytotoxicity against Homo sapiens (human) HOP62 cells after 48 hr by SRB assay; details: HOP-62, 48 h
SNB-75 [3] = assay: Growth inhibition of Homo sapiens (human) SNB75 cells at 10 uM after 48 hr by SRB assay; details: SNB-75, 48 h, read-out: GI
EKVX [4] = assay: Cytotoxicity against Homo sapiens (human) EKVX cells after 48 hr by SRB assay
SNB-75 [5] = assay: Cytotoxicity against Homo sapiens (human) SNB75 cells after 48 hr by SRB assay; details: SNB-75, 48 h
IGROV-1 = assay: Cytotoxicity against Homo sapiens (human) IGROV1 cells after 48 hr by SRB assay; details: IGROV-1, 48 h
HL-60(TB) [6] = assay: Cytotoxicity against Homo sapiens (human) HL-60(TB) cells after 48 hr by SRB assay; details: HL-60, 48 h
A498 [7] = assay: Growth inhibition of Homo sapiens (human) A498 cells at 10 uM after 48 hr by SRB assay; details: A498, 48 h, read-out: GI
HCC 2998 [8] = assay: Growth inhibition of Homo sapiens (human) HCC2998 cells at 10 uM after 48 hr by SRB assay; details: HCC 2998, 48 h, read-out: GI
COLO 205 = assay: Growth inhibition of Homo sapiens (human) COLO205 cells at 10 uM after 48 hr by SRB assay; details: COLO 205, 48 h, read-out: GI
HOP-92 [9] = assay: Cytotoxicity against Homo sapiens (human) HOP92 cells after 48 hr by SRB assay; details: HOP-92, 48 h
SF-295 = assay: Growth inhibition of Homo sapiens (human) SF295 cells at 10 uM after 48 hr by SRB assay; details: SF-295, 48 h, read-out: GI
OVCAR-4 = assay: Cytotoxicity against Homo sapiens (human) OVCAR4 cells after 48 hr by SRB assay; details: OVCAR-4, 48 h
A549 = assay: Growth inhibition of Homo sapiens (human) A549 cells at 10 uM after 48 hr by SRB assay; details: A549, 48 h, read-out: GI
A498 [10] = assay: Cytotoxicity against Homo sapiens (human) A498 cells after 48 hr by SRB assay; details: A498, 48 h
MDA-MB-231 = assay: Cytotoxicity against Homo sapiens (human) MDA-MB-231 cells after 48 hr by SRB assay; details: MDA-MB-231, 48 h
U-251 = assay: Growth inhibition of Homo sapiens (human) U251 cells at 10 uM after 48 hr by SRB assay; details: U-251, 48 h, read-out: GI
T47D = assay: Cytotoxicity against Homo sapiens (human) T47D cells after 48 hr by SRB assay
HCC 2998 [11] = assay: Cytotoxicity against Homo sapiens (human) HCC2998 cells after 48 hr by SRB assay; details: HCC 2998, 48 h
CCRF-CEM [12] = assay: Growth inhibition of Homo sapiens (human) CCRF-CEM cells at 10 uM after 48 hr by SRB assay; details: read-out: GI
UACC-62 = assay: Cytotoxicity against Homo sapiens (human) UACC62 cells after 48 hr by SRB assay; details: UACC-62, 48 h
SR [13] = assay: Cytotoxicity against Homo sapiens (human) SR cells after 48 hr by SRB assay
CCRF-CEM [14] = assay: Cytotoxicity against Homo sapiens (human) CCRF-CEM cells after 48 hr by SRB assay
NCI-H460 = assay: Growth inhibition of Homo sapiens (human) NCI-H460 cells at 10 uM after 48 hr by SRB assay; details: NCI-H460, 48 h, read-out: GI
RPMI-8226 [15] = assay: Growth inhibition of Homo sapiens (human) RPMI8226 cells at 10 uM after 48 hr by SRB assay; details: RPMI-8226, 48 h, read-out: GI
HOP-92 [16] = assay: Growth inhibition of Homo sapiens (human) HOP92 cells at 10 uM after 48 hr by SRB assay; details: HOP-92, 48 h, read-out: GI
HL-60(TB) [17] = assay: Growth inhibition of Homo sapiens (human) HL-60(TB) cells at 10 uM after 48 hr by SRB assay; details: HL-60, 48 h, read-out: GI
786-0 = assay: Growth inhibition of Homo sapiens (human) 786-0 cells at 10 uM after 48 hr by SRB assay; details: 786-0, 48 h, read-out: GI
SF-268 = assay: Cytotoxicity against Homo sapiens (human) SF268 cells after 48 hr by SRB assay; details: SF-268, 48 h
EKVX [18] = assay: Growth inhibition of Homo sapiens (human) EKVX cells at 10 uM after 48 hr by SRB assay; details: read-out: GI
LOX IMVI = assay: Growth inhibition of Homo sapiens (human) LOXIMVI cells at 10 uM after 48 hr by SRB assay; details: read-out: GI
UO-31 [19] = assay: Cytotoxicity against Homo sapiens (human) UO31 cells after 48 hr by SRB assay; details: UO-31, 48 h
BT-549 [20] = assay: Cytotoxicity against Homo sapiens (human) BT549 cells after 48 hr by SRB assay; details: BT-549, 48 h
M14 = assay: Growth inhibition of Homo sapiens (human) M14 cells at 10 uM after 48 hr by SRB assay; details: M14, 48 h, read-out: GI
RPMI-8226 [21] = assay: Cytotoxicity against Homo sapiens (human) RPMI8226 cells after 48 hr by SRB assay; details: Homo sapiens, RPMI-8226, 48 h
HOP-62 [22] = assay: Growth inhibition of Homo sapiens (human) HOP62 cells at 10 uM after 48 hr by SRB assay; details: HOP-62, 48 h, read-out: GI
MDA-MB-435 = assay: Growth inhibition of Homo sapiens (human) MDA-MB-435 cells at 10 uM after 48 hr by SRB assay; details: MDA-MB-435, 48 h, read-out: GI
SF-539 = assay: Cytotoxicity against Homo sapiens (human) SF539 cells after 48 hr by SRB assay; details: SF-539, 48 h
OVCAR-3 = assay: Cytotoxicity against Homo sapiens (human) OVCAR3 cells after 48 hr by SRB assay; details: OVCAR-3, 48 h
NCI-H23 = assay: Growth inhibition of Homo sapiens (human) NCI-H23 cells at 10 uM after 48 hr by SRB assay; details: NCI-H23, 48 h, read-out: GI
UO-31 [23] = assay: Growth inhibition of Homo sapiens (human) UO31 cells at 10 uM after 48 hr by SRB assay; details: UO-31, 48 h, read-out: GI
BT-549 [24] = assay: Growth inhibition of Homo sapiens (human) BT549 cells at 10 uM after 48 hr by SRB assay; details: BT-549, 48 h, read-out: GI

COc1ccc(-c2cc(-c3cccn3C)c(C#N)c(=O)n2C(=S)Nc2ccc(F)cc2)cc1OC
inhibition of growth at 10 µM (SR [1]): 27.8%
inhibition of growth at 10 µM (K562): 26.9%
inhibition of growth at 10 µM (CAKI-1): 31.1%

Cn1cccc1-c1cc(-c2ccc(Br)cc2)n(C(=S)Nc2ccc(F)cc2)c(=O)c1C#N
inhibition of growth at 10 µM (SK-MEL-5): 33.5%
GI50 (HOP-62 [2]): 37.1 µM
inhibition of growth at 10 µM (SNB-75 [3]): 42.7%
GI50 (EKVX [4]): 0.01 µM
TGI (EKVX [4]): 0.03 µM
GI50 (SNB-75 [5]): 38 µM
GI50 (IGROV-1): 22.9 µM
GI50 (HL-60(TB) [6]): 14.5 µM
inhibition of growth at 10 µM (A498 [7]): 27.6%
inhibition of growth at 10 µM (HCC 2998 [8]): 27.6%
inhibition of growth at 10 µM (COLO 205): 45.6%
GI50 (HOP-92 [9]): > 100 µM
inhibition of growth at 10 µM (K562): 60%
inhibition of growth at 10 µM (SF-295): 40.2%
GI50 (OVCAR-4): > 100 µM
inhibition of growth at 10 µM (A549): 47.8%
GI50 (A498 [10]): 17.8 µM
GI50 (MDA-MB-231): > 100 µM
inhibition of growth at 10 µM (U-251): 26.3%
GI50 (T47D): > 100 µM
GI50 (HCC 2998 [11]): > 100 µM
inhibition of growth at 10 µM (CCRF-CEM [12]): 48.3%
GI50 (UACC-62): 72.4 µM
GI50 (SR [13]): > 100 µM
GI50 (CCRF-CEM [14]): > 100 µM
inhibition of growth at 10 µM (NCI-H460): 31.6%
inhibition of growth at 10 µM (RPMI-8226 [15]): 59.2%
inhibition of growth at 10 µM (HOP-92 [16]): 39.6%
inhibition of growth at 10 µM (CAKI-1): 30.3%
inhibition of growth at 10 µM (HL-60(TB) [17]): 82.3%
inhibition of growth at 10 µM (786-0): 28.8%
GI50 (SF-268): 20.4 µM
inhibition of growth at 10 µM (EKVX [18]): 29.7%
inhibition of growth at 10 µM (LOX IMVI): 23%
GI50 (UO-31 [19]): 13.8 µM
LC50 (UO-31 [19]): 54.9 µM
TGI (UO-31 [19]): 27.5 µM
GI50 (BT-549 [20]): > 100 µM
inhibition of growth at 10 µM (M14): 29.1%
GI50 (RPMI-8226 [21]): > 100 µM
inhibition of growth at 10 µM (HOP-62 [22]): 34.5%
inhibition of growth at 10 µM (MDA-MB-435): 35.1%
GI50 (SF-539): > 100 µM
GI50 (OVCAR-3): > 100 µM

COc1ccc(-c2cc(-c3cccs3)n(Cc3ccccc3)c(=O)c2C#N)cc1
inhibition of growth at 10 µM (K562): 50.4%
inhibition of growth at 10 µM (NCI-H23): 21%
inhibition of growth at 10 µM (UO-31 [23]): 23.5%
inhibition of growth at 10 µM (HOP-92 [16]): 26.8%

COc1ccc(-c2cc(-c3cccn3C)c(C#N)c(=O)n2S(=O)(=O)c2ccccc2)cc1OC
inhibition of growth at 10 µM (SR [1]): 31.4%
inhibition of growth at 10 µM (BT-549 [24]): 21%
inhibition of growth at 10 µM (HOP-92 [16]): 25.8%

From ChEMBL document CHEMBL3046164, “A facile synthesis of some 3-cyano-1,4,6-trisubstituted-2(1H)-pyridinones and their biological evaluation as anticancer agents” (2011)
